Assay results published in US20240383900A1, “SUBSTITUTED PYRAZOLO [1,5-A]PYRIMIDINE-7-AMINE COMPOUNDS AS CDK INHIBITORS AND THEIR THERAPEUTIC USE” (Carrick Therapeutics Limited, priority 2021, published 2024).
Read-outs that look alike come from different tables or passages of the source.

Legend:
[1] = system: A673 cells; assay: Cytotoxicity in A673 cells (Cell Titer Glo viability); format: cell-based; details: for Ratio of Biochemical Potency:Cellular Potency: CDK12 IC50 / A673 IC50; for IC50: Homo sapiens
Method in brief: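 Cells plated at 1.2×10^5 per well in DMEM+10% FBS, 24 h, then compound series ± MLN4924 (30 nM final) in 0.1% DMSO for 72 h. Viability by Cell Titer Glo luminescence, normalised to vehicle (100%) and 0.1% Triton x-100 (0%); MLN4924 curves normalised to MLN4924-treated controls.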

[2] = biological target: Human CDK12 wt/CycK (Homo sapiens (Human), UniProt Q9NYV4); assay: Radiometric protein kinase assay (33PanQinase Activity Assay), CDK12; format: biochemical; details: for CDK7/CDK12: ratio of CDK7 IC50 to CDK12 IC50, greater than 1 indicates selectivity for CDK12
Method in brief: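 Radiometric 33P assay: ATP, test compound (in 10% DMSO) and premixed substrate/enzyme incubated 60 min at 30 °C, stopped with 2% H3PO4. 33Pi incorporation counted by scintillation; least-squares curve fit.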

[3] = biological target: Human CDK7/CycH/MAT1 (Homo sapiens (Human), UniProt P50613); assay: Radiometric protein kinase assay (33PanQinase Activity Assay), CDK7; format: biochemical; details: ATP 3 μM
[4] = system: A673 cells; assay: A673 cytotoxic potency shift in the presence of MLN4924 (cyclin K degrader activity); format: cell-based; details: 30 nM MLN4924, 72 hours
Method: Inhibition of cell viability by test compounds was assessed in A673 cells (ATCC CRL-1598) and the compound mode of action was attributed to a “molecular-glue”/cyclin K-degradation mechanism by probing for a loss of compound potency in the presence of the NEDD8-activating enzyme inhibitor, MLN4924.
Cells were plated in 96-well plates at a density of […] viable cells per well in 200 μL fully supplemented growth medium (DMEM+10% heat inactivated foetal bovine serum) and incubated for 24 hours in standard tissue culture conditions. Compounds, including MLN4924, were solubilised in DMSO and then diluted in fully supplemented growth medium at 2× their final assay concentration such that the final DMSO concentration was 0.1%. Growth medium in the assay plates was replaced with 50 μL of growth medium containing 2×MLN4924 (final assay concentration: 30 nM, where tested) or vehicle only and 50 μL of growth medium containing a 2× compound concentration series or vehicle only such that each compound was at 1× final assay concentration in 100 μL.
Cells were then incubated for 72 hours in standard tissue culture conditions before viability was assessed using 50 μL Cell Titer Glo reagent (Promega) per well and luminescence measured on an EnVision plate reader. Data were normalised to vehicle control (100%) and cells treated with 0.1% Triton x-100 for 1 hour before viability measurement (0%; full cell kill). IC50 values were determined using a semi-logistic curve fit with parameters “top” fixed at 100% and “bottom” at or below 0%. Viability curves generated in the presence of MLN4924 were normalised and fixed to controls treated with MLN4924.

[5] = A673, read-out: Cellular Potency IC50 (nM) (in A673 cells)
[6] = A673 cells, 72 hours, read-out: A673 IC50
[7] = ATP 0.3 μM, read-out: CDK12 IC50
[8] = read-out: CKD12 Biochemical Potency IC50

Human CDK12 wt/CycK, sequence (Q9NYV4 whole entry): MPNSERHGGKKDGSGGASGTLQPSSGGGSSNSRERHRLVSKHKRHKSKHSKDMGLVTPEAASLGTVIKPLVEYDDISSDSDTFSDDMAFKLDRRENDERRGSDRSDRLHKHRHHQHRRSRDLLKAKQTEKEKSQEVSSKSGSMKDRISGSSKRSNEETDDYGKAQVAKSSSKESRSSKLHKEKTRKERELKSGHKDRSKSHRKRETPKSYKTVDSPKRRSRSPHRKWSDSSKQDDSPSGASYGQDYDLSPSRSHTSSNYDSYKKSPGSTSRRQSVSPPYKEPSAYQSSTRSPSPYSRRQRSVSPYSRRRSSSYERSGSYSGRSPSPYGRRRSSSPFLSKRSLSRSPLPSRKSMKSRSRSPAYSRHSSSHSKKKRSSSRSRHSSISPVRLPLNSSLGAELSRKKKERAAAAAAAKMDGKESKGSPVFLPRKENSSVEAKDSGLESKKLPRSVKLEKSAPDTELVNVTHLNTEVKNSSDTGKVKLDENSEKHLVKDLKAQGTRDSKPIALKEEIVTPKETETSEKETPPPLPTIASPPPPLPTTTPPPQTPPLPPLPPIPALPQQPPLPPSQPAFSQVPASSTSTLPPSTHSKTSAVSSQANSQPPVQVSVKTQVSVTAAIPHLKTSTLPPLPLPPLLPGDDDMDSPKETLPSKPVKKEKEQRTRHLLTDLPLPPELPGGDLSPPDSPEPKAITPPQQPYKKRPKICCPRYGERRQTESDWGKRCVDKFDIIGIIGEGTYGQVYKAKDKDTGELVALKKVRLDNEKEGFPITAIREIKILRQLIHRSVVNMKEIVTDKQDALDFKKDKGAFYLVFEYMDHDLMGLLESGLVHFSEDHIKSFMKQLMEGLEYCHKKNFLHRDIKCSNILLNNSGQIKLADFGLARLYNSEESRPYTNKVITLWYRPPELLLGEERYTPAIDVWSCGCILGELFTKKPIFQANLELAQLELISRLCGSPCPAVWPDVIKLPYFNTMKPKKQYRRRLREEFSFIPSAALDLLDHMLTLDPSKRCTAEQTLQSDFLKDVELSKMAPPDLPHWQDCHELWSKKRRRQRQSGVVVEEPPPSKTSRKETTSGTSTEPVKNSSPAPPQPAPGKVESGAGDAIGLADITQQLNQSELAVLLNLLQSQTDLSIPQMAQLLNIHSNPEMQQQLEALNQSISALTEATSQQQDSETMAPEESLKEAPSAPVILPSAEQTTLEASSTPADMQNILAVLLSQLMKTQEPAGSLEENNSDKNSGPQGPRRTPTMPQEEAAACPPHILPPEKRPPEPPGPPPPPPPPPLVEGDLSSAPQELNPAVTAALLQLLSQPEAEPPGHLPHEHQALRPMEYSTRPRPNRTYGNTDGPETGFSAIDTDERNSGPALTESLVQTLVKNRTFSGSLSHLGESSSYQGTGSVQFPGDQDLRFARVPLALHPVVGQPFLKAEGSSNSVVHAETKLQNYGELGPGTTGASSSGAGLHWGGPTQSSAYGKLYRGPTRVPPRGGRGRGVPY
Human CDK12 wt/CycK, sequence (O75909 whole entry partner): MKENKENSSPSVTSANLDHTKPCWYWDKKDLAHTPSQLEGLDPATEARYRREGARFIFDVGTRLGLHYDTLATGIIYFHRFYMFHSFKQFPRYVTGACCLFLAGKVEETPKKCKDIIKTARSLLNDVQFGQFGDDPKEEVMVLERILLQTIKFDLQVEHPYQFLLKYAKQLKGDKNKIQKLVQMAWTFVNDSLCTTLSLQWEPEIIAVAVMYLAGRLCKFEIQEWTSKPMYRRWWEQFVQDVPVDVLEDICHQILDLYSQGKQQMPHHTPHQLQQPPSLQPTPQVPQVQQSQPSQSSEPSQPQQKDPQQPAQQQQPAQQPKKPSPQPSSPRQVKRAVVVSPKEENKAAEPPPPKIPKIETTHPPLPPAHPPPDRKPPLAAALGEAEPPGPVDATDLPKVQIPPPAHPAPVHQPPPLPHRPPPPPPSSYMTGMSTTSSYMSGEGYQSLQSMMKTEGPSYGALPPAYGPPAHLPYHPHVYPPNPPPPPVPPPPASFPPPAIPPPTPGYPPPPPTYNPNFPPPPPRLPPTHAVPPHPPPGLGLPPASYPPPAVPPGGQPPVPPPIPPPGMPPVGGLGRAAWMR
Human CDK7/CycH/MAT1, sequence (P50613 whole entry): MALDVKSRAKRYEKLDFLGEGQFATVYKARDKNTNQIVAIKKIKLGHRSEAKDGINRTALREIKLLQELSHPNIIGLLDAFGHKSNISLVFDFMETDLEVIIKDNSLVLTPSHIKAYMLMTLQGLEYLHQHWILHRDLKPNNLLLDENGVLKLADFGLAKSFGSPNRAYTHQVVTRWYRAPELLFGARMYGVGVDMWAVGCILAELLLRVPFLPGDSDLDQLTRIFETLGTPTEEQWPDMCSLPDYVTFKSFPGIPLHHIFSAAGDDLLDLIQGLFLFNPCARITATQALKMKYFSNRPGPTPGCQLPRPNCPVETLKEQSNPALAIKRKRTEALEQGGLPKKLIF
Human CDK7/CycH/MAT1, sequence (P51946 whole entry partner): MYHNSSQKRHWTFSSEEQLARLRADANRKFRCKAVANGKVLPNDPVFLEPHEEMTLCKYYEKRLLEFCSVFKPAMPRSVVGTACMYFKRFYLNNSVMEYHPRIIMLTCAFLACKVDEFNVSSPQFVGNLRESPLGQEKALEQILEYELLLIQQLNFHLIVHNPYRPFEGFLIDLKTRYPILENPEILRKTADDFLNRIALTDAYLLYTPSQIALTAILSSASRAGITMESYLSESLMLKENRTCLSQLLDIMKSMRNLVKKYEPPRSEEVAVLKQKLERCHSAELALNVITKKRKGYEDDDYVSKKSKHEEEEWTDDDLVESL
Human CDK7/CycH/MAT1, sequence (P51948 whole entry partner): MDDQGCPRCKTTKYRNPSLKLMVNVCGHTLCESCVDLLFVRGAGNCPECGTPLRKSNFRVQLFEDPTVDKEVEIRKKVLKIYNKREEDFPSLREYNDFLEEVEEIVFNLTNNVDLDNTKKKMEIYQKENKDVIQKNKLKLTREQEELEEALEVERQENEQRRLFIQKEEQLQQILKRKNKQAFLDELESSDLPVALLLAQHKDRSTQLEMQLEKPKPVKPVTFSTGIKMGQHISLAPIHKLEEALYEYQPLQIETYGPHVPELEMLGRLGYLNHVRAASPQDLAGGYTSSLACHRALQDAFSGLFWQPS

| Structure (SMILES) | IC50 [2, 7] [nM] | CDK7/CDK12 [2] | IC50 [2, 8] [nM] | IC50 [3] [nM] | Ratio of Biochemical Potency:Cellular Potency [1] | IC50 [1, 5] [nM] | IC50 [1, 6] [nM] | Cyclin K Degrader Activity (A673 potency shift + MLN4924) [4] |
| --- | --- | --- | --- | --- | --- | --- | --- | --- |
| c1ccc(-c2ccc(CNc3cc(OC4CNC4)nc4c(C5CC5)cnn34)cc2)nc1 [PPA-049] | 32 | 30.7 | 32 | 982 | 4.64 | 6.9 | 6.9 | +++ (>5 fold change.) |
| N#Cc1cnn2c(NCc3ccc(-c4ccccc4)cc3F)cc(NC[C@H]3CCNC[C@@H]3O)nc12 [PPA-070] | 107 | 5.3 | 107 | 562 | 20.19 | 5.3 | 5.3 | +++ (>5 fold change.) |
| N#Cc1cnn2c(NCc3ccc(-c4ccccc4)cc3F)cc(N[C@H]3CCNC3)nc12 [PPA-071] | 40 | 38.8 | 40 | 1550 | 28.57 | 1.4 | 1.4 | +++ (>5 fold change.) |
| O[C@H]1CNCC[C@@H]1CNc1cc(NCc2ccc(-c3ccccc3)cc2)n2ncc(C3CC3)c2n1 [PPA-059] | 158 | 4.0 | 158 | 637 | 12.54 | 12.6 | 12.6 | +++ (>5 fold change.) |
| c1ccc(-c2ccc(CNc3cc(OCC4CNC4)nc4c(C5CC5)cnn34)cc2)nc1 [PPA-055] | 134 | 17.8 | 134 | 2390 | 5.38 | 24.9 | 24.9 | ++ (>2 and ≤5 fold change.) |

Second part, led by results:

| IC50 [2, 7] [nM] | CDK7/CDK12 [2] | IC50 [2, 8] [nM] | IC50 [3] [nM] | Structure (SMILES) | Ratio of Biochemical Potency:Cellular Potency [1] | IC50 [1, 5] [nM] | IC50 [1, 6] [nM] | Cyclin K Degrader Activity (A673 potency shift + MLN4924) [4] |
| --- | --- | --- | --- | --- | --- | --- | --- | --- |
| 28 | 9.8 | 28 | 274 | c1cnc(-c2ccc(CNc3cc(N[C@H]4CCCNC4)nc4c(C5CC5)cnn34)cc2)nc1 [PPA-089] | 14.74 | 1.9 | 3.4 | +++ (>5 fold change.) |
| 31 | 28.8 | 31 | 892 | c1ccc(-c2ccc(CNc3cc(NC4CNC4)nc4c(C5CC5)cnn34)cc2)nc1 [PPA-047] | 1.79 | 17.3 | 17.3 | ++ (>2 and ≤5 fold change.) |
| 51 | 6.6 | 51 | 338 | c1ccc(-c2ccc(CNc3cc(N[C@H]4CCCNC4)nc4c(C5CC5)cnn34)cc2)nc1 [PPA-044] | 18.89 | 2.7 | 2.7 | +++ (>5 fold change.) |
| 23 | 18.2 | 23 | 418 | c1cnc(-c2ccc(CNc3cc(N[C@H]4CCNC4)nc4c(C5CC5)cnn34)cc2)nc1 [PPA-090] | 4.89 | 4.7 | 5.2 | +++ (>5 fold change.) |
| 204 | 25.8 | 204 | 5260 | c1ccc(-c2ccc(CNc3cc(C4CNC4)nc4c(C5CC5)cnn34)cc2)nc1 [PPA-058] | 29.57 | 6.9 | 6.9 | +++ (>5 fold change.) |
| 18 | 14.9 | 18 | 268 | c1ccc(-c2ccc(CNc3cc(O[C@H]4CCCNC4)nc4c(C5CC5)cnn34)cc2)nc1 [PPA-064] | 15.00 | 1.2 | 1.2 | +++ (>5 fold change.) |
